Experiment: in vitro
Conditions: human, hela cells, % viability

Row | SMILES | viability at 28.5 h, 10 µM
1 | Cc1cccc(NC2(C(F)(F)F)N=C(c3ccccc3)NC2=O)n1 (stereo not shown) [CBK267476] | 92.9%
2 | Oc1ccc(/C=N/N=C/c2ccc(O)c(O)c2)cc1O [CBK261641] | 95%
3 | N#Cc1c(NC(=O)CSc2nnc(N)s2)sc2c1CCCC2 [CBK266649] | 99.8%
4 | NCCC(=O)N(CCc1cc(C(F)(F)F)cc(C(F)(F)F)c1)c1ccc(Oc2ccccc2)cc1 [CBK002998T] | 97.7%
5 | CC(C)n1c(=O)[nH]c2ccncc2c1=O [CBK015763] | 88.8%
6 | CCn1c(C(C)Oc2ccc(Cl)cc2)n[nH]c1=S (stereo not shown) [CBK015099] | 108%
7 | O=C(c1ccco1)N1CCN(CC(=O)N2c3ccccc3OCC2c2ccccc2)CC1 (stereo not shown) [CBK239722] | 89.9%
8 | Cc1ccc(C(O)CN2CCC(O)(c3ccc(F)cc3)CC2)cc1 (stereo not shown) [CBK283309] | 94.5%
9 | CC(=O)c1ccc(NC(=O)CSc2nnc(-c3ccncc3)s2)cc1 [CBK269183] | 85.1%
10 | Cc1ccc(CSCC(=O)N2CCC(Cc3ccccc3)CC2)cc1 [CBK058739] | 95.6%
11 | COc1ccc(NC(=O)c2cnc(-c3cccc(C)c3)c(-c3ccco3)c2)cc1 [CBK037491] | 83.9%
12 | O=C(Cc1nnn[nH]1)N1CCCC2(CCN(C(=O)c3ccoc3)C2)C1 (stereo not shown) [CBK137077] | 91.8%
13 | Cc1nn(CC(=O)NC2CCCCC2)c(=O)c2cc3ccsc3n12 [CBK284080] | 94.9%
14 | CCNc1cc2ccccc2c(-c2ccc3c(c2)OCCCO3)n1 [CBK089641] | 99.2%
15 | CC(=O)N1CCN(c2c(-c3ccccc3)nnc3ccccc23)CC1 [CBK066889] | 91.2%
16 | COc1ccc(C)cc1S(=O)(=O)N(CCO)c1cc(N2CCNCC2)c2occc2c1 [CBK067894C] | 86%
17 | CCc1cc(C(=O)OC)c(NC(=S)Nc2nc3cc(C)c(C)cc3s2)s1 [CBK267116] | 81%
18 | Cc1ccnc2c1C(=O)C1(CC2)CCN(S(=O)(=O)c2c(C)noc2C)CC1 [CBK059557T] | 80.4%
19 | CCCC(=O)Nc1ccc(OCc2ncc(C(C)(C)C)o2)c(C(C)=O)c1 [CBK305218] | 86.2%
20 | Cc1n[nH]c(NNC(=O)COc2ccc(Cl)cc2)c1[N+](=O)[O-] [CBK261478] | 98.2%
21 | O=C(NCc1cccnc1)C(=O)Nc1ccc(F)cc1F [CBK269481] | 101%
22 | CC(C(=O)NCCc1ccncc1)n1cnc2ccccc21 (stereo not shown) [CBK282202] | 103%

Row | SMILES | viability at 28.5 h, 10 µM
23 | Cc1cc(N2CCN(c3ccccc3)CC2)nc(-c2ccccc2O)n1 [CBK116405] | 92.1%
24 | O=C(Nc1cc(Cl)ccc1Cl)c1ncn[nH]1 [CBK028834] | 92.9%
25 | CCc1nc2ccc(C(=O)NCCCN3CCCC3=O)cn2c1N(C)Cc1cccs1 [CBK145536] | 95%
26 | CCC(CN(C)C)C(=O)c1ccccc1 (stereo not shown) [CBK015409C] | 95.1%
27 | Fc1ccccc1-c1nccnc1NCc1ccncc1 [CBK037540] | 101%
28 | CS(=O)(=O)c1ccc(-c2cnc3[nH]c(=O)n(Cc4cccs4)c3n2)cc1 [CBK064383] | 93.1%
29 | CC(C)c1ccc(S(=O)(=O)NCC(C)(C)CO)cc1 [CBK043547] | 110%
30 | COc1ccc(CN2CCCn3c4c(c5cc(C)ccc53)CCCC42)cc1OCc1ccccc1 (stereo not shown) [CBK262879] | 96.4%
31 | Nc1cccc(-c2nc(-c3cccnc3)cnc2N)c1 [CBK063906] | 95.3%
32 | CC(C)(C)c1ccc(C(=O)CSCC(=O)Nc2ccc3ccccc3c2)cc1 [CBK268394] | 85.2%
33 | COc1cccc(OCC(=O)Nc2ccccc2C(=O)O)c1 [CBK286819] | 85.9%
34 | CCOc1cc(C(O)c2nnc(-c3ccccc3)o2)ccc1OCC(C)C (stereo not shown) [CBK132385] | 89.1%
35 | c1cnc(OC2CCN(CC3CCCCC3)CC2)c(OC2CCCCC2)n1 [CBK082879T] | 101%
36 | CC(=O)Nc1ccc(C(=O)N2CCC(c3cccc(Cc4ccccc4Cl)n3)CC2)cc1 [CBK286111] | 96.2%
37 | Cc1cc(C(=O)NCCC(=O)O)c2ccccc2n1 [CBK286573] | 86%
38 | Cc1ccc(-c2nc3ccccc3[nH]2)cc1NC(=O)CSc1ccc(Cl)cc1 [CBK268942] | 98.3%
39 | Clc1ccc(-n2ncc(-c3cccnc3)n2)cc1Cl [CBK112814] | 101%
40 | CCOC(=O)N1C(=O)c2ccccc2NC1(C(F)(F)F)C(F)(F)F [CBK025725] | 102%
41 | COC(=O)[C@@H](C)NC(=O)[C@H]1CN(C(=O)c2cccnc2)CCN1C(=O)NC1CCCCC1 [CBK289632] | 86%
42 | Cc1ccc(-c2noc(CN3CCN(Cc4ccccc4)CC3)n2)cc1 [CBK267288] | 91.3%
43 | COc1ccccc1Cc1cccc(C2CCN(CC(=O)Nc3nccs3)CC2)n1 [CBK286227] | 95.1%
44 | O=C(Nc1ccncc1)c1snnc1-c1ccccc1 [CBK287982] | 81.4%

Row | SMILES | viability at 28.5 h, 10 µM
45 | FC(F)(F)c1cccc(-c2cn3ccnc3c(NCCc3ccccn3)n2)c1 [CBK066491] | 95.4%
46 | O=C(CCn1cnc2ccccc21)N1CC[C@@H](c2ccccc2)[C@H](O)C1 [CBK283712] | 102%
47 | COC(=O)C1=COC(C)C2CN3CCC4(NC(=O)c5c4ccc(OC)c5OC)C3CC12 (stereo not shown) [CBK003303] | 107%
48 | O=C(O)c1c[nH]nc1-c1cccc(Br)c1 [CBK286963] | 91.1%
49 | CN(C)c1ccc(C(=O)N2CC[C@@H](CC(=O)O)[C@@H](CC3=NCCc4ccccc43)C2)cc1 [CBK289159] | 94.8%
50 | OCc1cc(CC2(NCc3cccc4c3OCO4)COC2)no1 [CBK289314] | 90.6%
51 | CC(=O)Nc1cccc(-c2cncc(-c3ccc(O)cc3)n2)c1 [CBK123795] | 77.8%
52 | COc1cc(OC)nc(Oc2ccc(C(=O)O)cc2)n1 [CBK092222] | 106%
53 | C#CCNS(=O)(=O)c1cccc(C(=O)NCC2CCCN(C(C)C)C2)c1 (stereo not shown) [CBK305981] | 109%
54 | Oc1ccccc1/C=N/c1ccc(Cc2ccc(/N=C/c3ccccc3O)c(O)c2)cc1O [CBK261156] | 93.4%
55 | CCc1nnc(SCc2cccc(C(=O)O)c2)o1 [CBK286993] | 95.7%
56 | O=C(O)CN1C(=O)/C(=C/C2=Cc3ccccc3OC2)SC1=S [CBK264787] | 103%
57 | O=C(NC1CCCCC1)O[C@@H]1CO[C@H]2[C@@H]1OC[C@@H]2NS(=O)(=O)Cc1ccccc1 [CBK289467] | 87.8%
58 | c1ccc(CCN2CCC(Cc3ccccc3)CC2)cc1 [CBK126434] | 96.3%
59 | COc1ccc(CCC(=O)N2CCCC2c2ccc(Cc3ccccc3F)cn2)cc1 (stereo not shown) [CBK285992] | 94.2%
60 | COc1cccc(NC(=O)CN2CCN(c3nc4ccc([N+](=O)[O-])cc4s3)CC2)c1 [CBK264089] | 93.7%
61 | C=CCNC(=O)N1CC[C@H]2CC(=O)N(Cc3cccnc3)CC[C@H]2C1 [CBK288791] | 113%
62 | Cc1ccc(S(=O)(=O)NCCSc2nc(-c3ccc([N+](=O)[O-])cc3)c[nH]2)cc1 [CBK268518] | 97%
63 | Cc1csc2c(C3CCCN(C(=O)c4cnn(C)c4)C3)nc(C)n12 (stereo not shown) [CBK284595] | 98.5%
64 | Cc1ccc(-c2cc(C(=O)NCCCN3CCOCC3)c3cc(Cl)ccc3n2)o1 [CBK267737] | 108%
65 | COC(=O)c1cc(Cl)c2ccccc2n1 [CBK012428] | 80.4%
66 | Cc1cccnc1NC(=O)c1cc(O)nc2ccccc12 [CBK300499] | 91.6%

Row | SMILES | viability at 28.5 h, 10 µM
67 | COc1cccc(OCc2cnc(-c3ccc(Cl)cc3)c(-c3cccc(CNC(C)=O)c3)c2)c1 [CBK165225] | 90.5%
68 | O=[N+]([O-])c1ccc(Cl)cc1N/N=C1\CN2CCC1CC2 [CBK217272] | 108%
69 | O=C(O)c1cc(C(=O)O)c(-c2ccccc2)c(C(=O)O)c1 [CBK261101] | 93.7%
70 | CC1CCc2c(sc(NC(=O)c3cc(-c4cccnc4)nc4ccc(Cl)cc34)c2C(N)=O)C1 (stereo not shown) [CBK267762] | 104%
71 | Cc1ccc(S(=O)(=O)c2ccc(C)c(S(=O)(=O)N3CCCC3)c2)cc1S(=O)(=O)N1CCCC1 [CBK261772] | 78.9%
72 | COc1cc(C#N)ccc1OCc1ccccc1 [CBK002577] | 62%
73 | O=C(CN1CCC(c2ccccc2F)CC1)N1CCCC1 [CBK283578] | 98.2%
74 | CC(NC(=O)N1CCCCC1CO)c1ccccc1 (stereo not shown) [CBK155988] | 93.1%
75 | COc1ccc(-c2nnc([C@H]3CCN(Cc4ccccn4)C3)o2)cc1 [CBK289401] | 93.4%
76 | O=C(NCCc1ccc(O)cc1)c1ccc(-c2ccc(OC(F)(F)F)cc2)nc1 [CBK156224] | 95.8%
77 | COc1ccccc1C1CCC(NCCCC(=O)c2ccc(F)cc2)CC1 (stereo not shown) [CBK015965C] | 105%
78 | COc1ccc(Br)cc1S(=O)(=O)Nc1c(C(=O)O)[nH]c2ccccc12 [CBK049887] | 97.5%
79 | COC(CNC(=O)N(C)Cc1nncn1C(C)C)c1cccs1 (stereo not shown) [CBK306556] | 90.8%
80 | O=C(O)CCCc1[nH]nc(O)c1Cc1c(Cl)cccc1Cl [CBK081137] | 105%
81 | COc1ccc([C@@]23CCC(NC(=O)Nc4cc(C(F)(F)F)ccc4F)C[C@@H]2N(C)CC3)cc1OC (stereo partly shown) [CBK047552T] | 87.2%
82 | Cc1nc(C)n(CC2CCCN(Cc3ccc(C#N)cc3)C2)n1 (stereo not shown) [CBK305082] | 83.1%
83 | COc1cc2c(cc1OC)CN(CCO)CC2 [CBK138322] | 108%
84 | COc1ccc(-c2c[n+]3ccccc3c(=O)[nH]2)cc1 [CBK011078B] | 93.8%
85 | COc1ccc(/C=N/NS(C)(=O)=O)cc1 [CBK261981] | 108%
86 | CCCCSc1nnc2c(n1)OC(/C=C/c1ccc([N+](=O)[O-])o1)Nc1ccccc1-2 (stereo not shown) [CBK262565] | 101%
87 | CCOC(=O)c1cccc(-c2ccc(F)cc2F)n1 [CBK149245] | 101%

Same assay, conditions: human, hela cells, % viability, bulk resorufin, single well

Row | SMILES | viability at 28.5 h, 10 µM
88 | Cc1cccc(N2C(=O)NC(=O)/C(=C/NC3CCN(Cc4ccccc4)CC3)C2=O)c1 [CBK261827] | 92.2%
